# Measured values taken from patent US20140286964A1, “Methods for Identifying Janus Kinase (JAK) Modulators for Therapeutics” (NEW YORK UNIVERSITY, priority 2011, published 2014).
# What was measured:
# [1] = biological target: T1, insulin receptor kinase (phosphorylated, active form) (Homo sapiens, UniProt P06213); test: mant-ATP binding to insulin receptor kinase (comparison)
# T1 construct: the insulin receptor kinase (phosphorylated, active form)
# JAK2 JH2 (JH2-Peak2) = biological target: T2, JAK2 JH2 (JH2-Peak2) (Homo sapiens, UniProt O60674); test: Mant-ATP binding assay (fluorescence) with JH2-Peak2
# T2 construct: We produced and purified human Jak2 JH2, residues 513-824, as described previously; 6xHis (C, cleaved yes); made in house; host or cells: Sf9 insect cells (baculovirus, pFASTBAC1)
# T2 sequence (O60674 513-824): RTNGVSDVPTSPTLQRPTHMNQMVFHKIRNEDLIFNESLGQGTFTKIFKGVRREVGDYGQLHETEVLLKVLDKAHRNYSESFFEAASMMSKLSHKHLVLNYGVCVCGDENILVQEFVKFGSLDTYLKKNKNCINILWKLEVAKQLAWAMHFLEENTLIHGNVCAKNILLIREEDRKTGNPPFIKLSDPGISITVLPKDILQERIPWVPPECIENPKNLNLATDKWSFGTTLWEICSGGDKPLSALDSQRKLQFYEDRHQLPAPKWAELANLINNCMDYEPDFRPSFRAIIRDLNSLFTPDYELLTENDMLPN
# Protocol: FIG. 13 provides an analysis of JAK2 JH2 autophosphorylation and ATP binding activity. (a) Time-course kinase assay of purified JH2-Peak1 and JH2-Peak2. (b) Time-course kinase assay of purified JH2 S523A and Y570F mutants compared to JH2-Peak2. (c) Fluorescence measurement of ATP binding assay of JAK2 JH2-Peak2. (d) Kd measurement of mant-ATP binding to JH2-Peak2. Graph, mean±s.d. of three independent experiments.
# The fluorescence intensity of mant-ATP (Invitrogen) complex with JH2 was measured using FluoroMax-2 spectrofluorimeter. Mant-ATP (1 μM) was added to a buffer solution (20 mM TRIS-HCl, pH 8, 200 mM NaCl, 10% (v/v) glycerol and 0.5 mM TCEP) along with 5 mM MnCl2 and 1 μM JH2 (from peak 2 fraction). The excitation and emission wavelengths were 280 nm and 440 nm, respectively, and emission was scanned from 400-500 nm. For kd measurements, increased concentration of purified JH2 (0.25 μM-6 μM) was added to buffer solution with 5 mM MnCl2 and 1 μM mant-ATP.
# If the pseudokinase domain of JAK2 is an active protein kinase, utilizing ATP as a phosphate donor, it should bind ATP with a physiologic Kd value. The binding of ATP to JH2 of JAK2 was evaluated using the fluorescent ATP-analogue mant [2′-(3′)—O—(N-methylanthraniloy)]-ATP. […] Mant-ATP bound to JH2 with a Kd of ˜1 μM (FIG. 13d), which is ˜10% of the reported Kd for JH1 of JAK2 (Hall, et al., Protein Expr. Purif. 2010; 69: 54-63). […]
# Jak2 JH2-WT = biological target: T3, Jak2 JH2-WT (Homo sapiens, UniProt O60674, F794H/W659A/W777A); test: mant-ATP binding (decrease of tryptophan emission by FRET) to JH2-WT; conditions: fluorescent ATP analog mant-ATP, FIG. 5
# T3 construct: 6xHis (N); made in house; host or cells: baculovirus-infected Sf9 cells
# T3 sequence (O60674 536-812 W659A/W777A/F794H): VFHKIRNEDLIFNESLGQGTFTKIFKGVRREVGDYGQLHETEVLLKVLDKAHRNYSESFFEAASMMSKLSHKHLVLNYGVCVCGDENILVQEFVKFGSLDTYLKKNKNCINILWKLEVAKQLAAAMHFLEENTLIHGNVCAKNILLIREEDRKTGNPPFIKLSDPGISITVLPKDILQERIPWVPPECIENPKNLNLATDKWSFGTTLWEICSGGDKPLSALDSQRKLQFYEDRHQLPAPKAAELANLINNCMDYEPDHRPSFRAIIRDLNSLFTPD
# Protocol: FIG. 5 depicts ATP binding to JH2-WT. The decrease of the tryptophan emission signal at 340 nm (excitation wavelength at 285 nm) resulting from FRET upon mant-ATP binding to JH2 was measured as a function of mant-ATP concentration. The plotted data points are an average of two experiments.
# (§1) As a first step in characterizing the catalytic properties of Jak2 JH2, dissociation constants (Kd values) for ATP binding to JH2-WT and -VF were obtained using the fluorescent ATP analog mant-ATP.
# Jak2 JH2-VF (V617F) = biological target: T4, Jak2 JH2-VF (V617F) (Homo sapiens, UniProt O60674, F794H/V617F/W777A); test: mant-ATP binding to JH2-VF; conditions: fluorescent ATP analog mant-ATP
# T4 construct: 6xHis (N); made in house; host or cells: baculovirus-infected Sf9 cells
# T4 sequence (O60674 536-812 V617F/W777A/F794H): as the sequence (O60674 536-812 W659A/W777A/F794H) above, with V82F, A124W counted along it
# Excerpt: as §1
# T1 sequence (P06213 1023-1298 limits assumed): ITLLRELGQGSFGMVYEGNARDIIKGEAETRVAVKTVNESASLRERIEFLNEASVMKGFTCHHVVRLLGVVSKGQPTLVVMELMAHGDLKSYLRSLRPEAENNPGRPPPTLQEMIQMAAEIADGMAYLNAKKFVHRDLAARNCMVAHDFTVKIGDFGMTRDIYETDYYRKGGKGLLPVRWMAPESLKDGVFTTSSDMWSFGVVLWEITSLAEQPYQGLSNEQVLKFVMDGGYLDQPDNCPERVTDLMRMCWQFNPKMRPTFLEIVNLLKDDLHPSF
substance,measurement,setting,value
mant [2′-(3′)—O—(N-methylanthraniloy)]-ATP [mant-ATP],Kd fold higher than for JH2,[1]; insulin receptor kinase Kd versus Jak2 JH2 Kd,~30 fold
same,Kd,"[1]; insulin receptor kinase, phosphorylated active form, same measurement",14000 nM
same,Kd,"JAK2 JH2 (JH2-Peak2); JH2-Peak2, 5 mM MnCl2, 1 μM mant-ATP, JH2 0.25-6 μM, FIG. 13d",~1000 nM
same,Kd as percentage of the reported Kd for JH1 of JAK2,JAK2 JH2 (JH2-Peak2); JH2 Kd versus literature Kd for JH1 (Hall et al. 2010),~10%
same,Kd,Jak2 JH2-WT,82 nM
same,Kd,Jak2 JH2-VF (V617F),84 nM
